{
  "source": "patent US6706663B2",
  "about": "“Herbicidal 3-heterocyclic substituted benzisothiazole and benzisoxazole compounds” (Wyeth, priority 2000, dated 2004)",
  "key": {"[1]": {"tested_on": "ABUTH (Abutilon theophrasti)", "experiment": "Postemergence herbicidal evaluation", "assay_type": "in vivo, Medic.", "procedure,_shortened": "(§1)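 Seedlings grown about two weeks in flats, sprayed, then kept under standard greenhouse care. Rated visually 4–5 weeks after treatment on a 0–9 scale (stand, vigour, malformation, size, chlorosis, overall appearance) relative to untreated control; repeat tests averaged.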"}, "[2]": {"tested_on": "AMBEL (Ambrosia artemisifolia)", "experiment": "Postemergence herbicidal evaluation", "assay_type": "in vivo, L.", "procedure,_shortened": "as §1"}, "[3]": {"tested_on": "CASOB (Cassia obtusifolia)", "experiment": "Postemergence herbicidal evaluation", "assay_type": "in vivo, L.", "procedure,_shortened": "as §1"}, "[4]": {"tested_on": "CHEAL (Chenopodium album)", "experiment": "Postemergence herbicidal evaluation", "assay_type": "in vivo, L.", "procedure,_shortened": "as §1"}, "[5]": {"tested_on": "IPOHE (Ipomoea hederacea)", "experiment": "Postemergence herbicidal evaluation", "assay_type": "in vivo, (L.) Jacq.", "procedure,_shortened": "as §1"}, "[6]": {"tested_on": "GLXMAW (Soybean, Williams)", "experiment": "Postemergence herbicidal evaluation", "assay_type": "in vivo, Glycine max, (L.) Merr. cv Williams", "procedure,_shortened": "as §1"}, "ORYSAT (Rice, Tebonnet) [7]": {"tested_on": "ORYSAT (Rice, Tebonnet)", "experiment": "Postemergence herbicidal evaluation", "assay_type": "in vivo, Oryza sativa, (L.) Tebonnet", "procedure,_shortened": "as §1"}, "[8]": {"tested_on": "ABUTH (Abutilon theophrasti)", "experiment": "Preemergence herbicidal evaluation", "assay_type": "in vivo, Medic.", "conditions": "rated 4-5 weeks after treatment"}, "[9]": {"tested_on": "AMBEL (Ambrosia artemisifolia)", "experiment": "Preemergence herbicidal evaluation", "assay_type": "in vivo, L.", "conditions": "rated 4-5 weeks after treatment", "procedure,_shortened": "(§2)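 Applied before emergence as an aqueous acetone spray over seeded soil. Read-out: 0–9 visual rating covering plant stand, vigor, size, chlorosis, malformation and overall appearance compared with control, taken 4–5 weeks after spraying.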"}, "[10]": {"tested_on": "CASOB (Cassia obtusifolia)", "experiment": "Preemergence herbicidal evaluation", "assay_type": "in vivo, L.", "conditions": "rated 4-5 weeks after treatment", "procedure,_shortened": "as §2"}, "[11]": {"tested_on": "CHEAL (Chenopodium album)", "experiment": "Preemergence herbicidal evaluation", "assay_type": "in vivo, L.", "conditions": "rated 4-5 weeks after treatment", "procedure,_shortened": "as §2"}, "[12]": {"tested_on": "IPOHE (Ipomoea hederacea)", "experiment": "Preemergence herbicidal evaluation", "assay_type": "in vivo, (L.) Jacq.", "conditions": "rated 4-5 weeks after treatment"}, "[13]": {"tested_on": "ECHCG (Echinochloa crus-galli)", "experiment": "Preemergence herbicidal evaluation", "assay_type": "in vivo, (L.) Beau", "conditions": "rated 4-5 weeks after treatment", "procedure,_shortened": "as §2"}, "SETVI (Setaria viridis)": {"tested_on": "SETVI (Setaria viridis)", "experiment": "Preemergence herbicidal evaluation", "assay_type": "in vivo, (L.) Beau", "conditions": "rated 4-5 weeks after treatment", "procedure,_shortened": "as §2"}, "[14]": {"tested_on": "GLXMAW (Soybean, Williams)", "experiment": "Preemergence herbicidal evaluation", "assay_type": "in vivo, Glycine max, (L.) Merr. cv Williams", "conditions": "rated 4-5 weeks after treatment"}, "[15]": {"tested_on": "TRZAWR (Wheat, Winter, cv Riband)", "experiment": "Preemergence herbicidal evaluation", "assay_type": "in vivo, Triticum aestivum", "conditions": "rated 4-5 weeks after treatment", "procedure,_shortened": "as §2"}, "ZEAMX (Corn, Field)": {"tested_on": "ZEAMX (Corn, Field)", "experiment": "Preemergence herbicidal evaluation", "assay_type": "in vivo, Zea mays, L.", "conditions": "rated 4-5 weeks after treatment"}, "CYPIR (Cyperus iria)": {"tested_on": "CYPIR (Cyperus iria)", "experiment": "Flooded paddy, preemergence weed control", "assay_type": "in vivo", "conditions": "rated 3-4 weeks after treatment, 0-9 rating scale", "procedure,_shortened": "(§3)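 Flooded silt loam pots, seeds in upper 0.5 cm, water held 1.5–3 cm deep; greenhouse; visual 0-9 score vs control.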"}, "[16]": {"tested_on": "MOOVA (Monochoria vaginalis)", "experiment": "Flooded paddy, preemergence weed control", "assay_type": "in vivo, Presl.", "conditions": "rated 3-4 weeks after treatment, 0-9 rating scale", "procedure,_shortened": "as §3"}, "ORYSAT (Rice, Tebonnet) [17]": {"tested_on": "ORYSAT (Rice, Tebonnet)", "experiment": "Flooded paddy, post-transplant rice tolerance", "assay_type": "in vivo, Oryza sativa, (L.) Tebonnet", "conditions": "flooded paddy, post-transplant rice, rated 3-4 weeks after treatment, 0-9 rating scale", "procedure,_shortened": "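Visual 0–9 injury rating against a control, covering stand, vigor, malformation, size, chlorosis and overall appearance. Treatment was post-transplant onto flooded containers (water 1.5–3 cm deep, silt loam) holding two ten-day-old cv. Tebonnet seedlings, maintained on greenhouse benches.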"}},
  "data": [
    {"smiles": "Cc1cc(C)nc(-c2nsc3ccc(-n4c(=O)cc(C(F)(F)F)n(C)c4=O)cc23)n1", "note": "[Compound 40, 3-[3-(4,6-dimethyl-2-pyrimidinyl)-1,2-benzisothiazol-5-yl]-1-methyl-6-(trifluoromethyl)uracil]", "values": [
      {"measurement": "Postemergence herbicidal rating, ABUTH", "setting": "[1]; rate 0.0320 kg/ha", "result": 9.0},
      {"measurement": "Postemergence herbicidal rating, ABUTH", "setting": "[1]; rate 0.0620 kg/ha", "result": 9.0},
      {"measurement": "Postemergence herbicidal rating, AMBEL", "setting": "[2]; rate 0.0320 kg/ha", "result": 9.0},
      {"measurement": "Postemergence herbicidal rating, AMBEL", "setting": "[2]; rate 0.0620 kg/ha", "result": 9.0},
      {"measurement": "Postemergence herbicidal rating, CASOB", "setting": "[3]; rate 0.0320 kg/ha", "result": 1.0},
      {"measurement": "Postemergence herbicidal rating, CASOB", "setting": "[3]; rate 0.0620 kg/ha", "result": 6.0},
      {"measurement": "Postemergence herbicidal rating, CHEAL", "setting": "[4]; rate 0.0320 kg/ha", "result": 4.0},
      {"measurement": "Postemergence herbicidal rating, CHEAL", "setting": "[4]; rate 0.0620 kg/ha", "result": 6.0},
      {"measurement": "Postemergence herbicidal rating, IPOHE", "setting": "[5]; rate 0.0320 kg/ha", "result": 9.0},
      {"measurement": "Postemergence herbicidal rating, IPOHE", "setting": "[5]; rate 0.0620 kg/ha", "result": 9.0},
      {"measurement": "Postemergence herbicidal rating, GLXMAW", "setting": "[6]; rate 0.0320 kg/ha", "result": 7.0},
      {"measurement": "Postemergence herbicidal rating, GLXMAW", "setting": "[6]; rate 0.0620 kg/ha", "result": 8.0},
      {"measurement": "Postemergence herbicidal rating, ORYSAT", "setting": "ORYSAT (Rice, Tebonnet) [7]; rate 0.0320 kg/ha", "result": 2.0},
      {"measurement": "Postemergence herbicidal rating, ORYSAT", "setting": "ORYSAT (Rice, Tebonnet) [7]; rate 0.0620 kg/ha", "result": 2.0},
      {"measurement": "Preemergence herbicidal rating ABUTH", "setting": "[8]; Rate 0.0620 kg/ha", "result": 9.0},
      {"measurement": "Preemergence herbicidal rating ABUTH", "setting": "[8]; Rate 0.1250 kg/ha", "result": 9.0},
      {"measurement": "Preemergence herbicidal rating ABUTH", "setting": "[8]; Rate 0.2500 kg/ha", "result": 9.0},
      {"measurement": "Preemergence herbicidal rating AMBEL", "setting": "[9]; Rate 0.0620 kg/ha", "result": 3.0},
      {"measurement": "Preemergence herbicidal rating AMBEL", "setting": "[9]; Rate 0.1250 kg/ha", "result": 5.0},
      {"measurement": "Preemergence herbicidal rating AMBEL", "setting": "[9]; Rate 0.2500 kg/ha", "result": 9.0},
      {"measurement": "Preemergence herbicidal rating CASOB", "setting": "[10]; Rate 0.0620 kg/ha", "result": 1.0},
      {"measurement": "Preemergence herbicidal rating CASOB", "setting": "[10]; Rate 0.1250 kg/ha", "result": 2.0},
      {"measurement": "Preemergence herbicidal rating CASOB", "setting": "[10]; Rate 0.2500 kg/ha", "result": 5.0},
      {"measurement": "Preemergence herbicidal rating CHEAL", "setting": "[11]; Rate 0.0620 kg/ha", "result": 9.0},
      {"measurement": "Preemergence herbicidal rating CHEAL", "setting": "[11]; Rate 0.1250 kg/ha", "result": 9.0},
      {"measurement": "Preemergence herbicidal rating CHEAL", "setting": "[11]; Rate 0.2500 kg/ha", "result": 9.0},
      {"measurement": "Preemergence herbicidal rating IPOHE", "setting": "[12]; Rate 0.0620 kg/ha", "result": 2.0},
      {"measurement": "Preemergence herbicidal rating IPOHE", "setting": "[12]; Rate 0.1250 kg/ha", "result": 7.0},
      {"measurement": "Preemergence herbicidal rating IPOHE", "setting": "[12]; Rate 0.2500 kg/ha", "result": 9.0},
      {"measurement": "Preemergence herbicidal rating ECHCG", "setting": "[13]; Rate 0.0620 kg/ha", "result": 3.0},
      {"measurement": "Preemergence herbicidal rating ECHCG", "setting": "[13]; Rate 0.1250 kg/ha", "result": 7.0},
      {"measurement": "Preemergence herbicidal rating ECHCG", "setting": "[13]; Rate 0.2500 kg/ha", "result": 8.0},
      {"measurement": "Preemergence herbicidal rating SETVI", "setting": "SETVI (Setaria viridis); Rate 0.0620 kg/ha", "result": 3.0},
      {"measurement": "Preemergence herbicidal rating SETVI", "setting": "SETVI (Setaria viridis); Rate 0.1250 kg/ha", "result": 9.0},
      {"measurement": "Preemergence herbicidal rating SETVI", "setting": "SETVI (Setaria viridis); Rate 0.2500 kg/ha", "result": 9.0},
      {"measurement": "Preemergence herbicidal rating GLXMAW", "setting": "[14]; Rate 0.0620 kg/ha", "result": 2.0},
      {"measurement": "Preemergence herbicidal rating GLXMAW", "setting": "[14]; Rate 0.1250 kg/ha", "result": 2.0},
      {"measurement": "Preemergence herbicidal rating GLXMAW", "setting": "[14]; Rate 0.2500 kg/ha", "result": 5.0},
      {"measurement": "Preemergence herbicidal rating TRZAWR", "setting": "[15]; Rate 0.0620 kg/ha", "result": 1.0},
      {"measurement": "Preemergence herbicidal rating TRZAWR", "setting": "[15]; Rate 0.1250 kg/ha", "result": 5.0},
      {"measurement": "Preemergence herbicidal rating TRZAWR", "setting": "[15]; Rate 0.2500 kg/ha", "result": 9.0},
      {"measurement": "Preemergence herbicidal rating ZEAMX", "setting": "ZEAMX (Corn, Field); Rate 0.0620 kg/ha", "result": 4.0},
      {"measurement": "Preemergence herbicidal rating ZEAMX", "setting": "ZEAMX (Corn, Field); Rate 0.1250 kg/ha", "result": 8.0},
      {"measurement": "Preemergence herbicidal rating ZEAMX", "setting": "ZEAMX (Corn, Field); Rate 0.2500 kg/ha", "result": 9.0},
      {"measurement": "herbicidal rating, CYPIR", "setting": "CYPIR (Cyperus iria); rate 0.0320 kg/ha", "result": 5.0},
      {"measurement": "herbicidal rating, CYPIR", "setting": "CYPIR (Cyperus iria); rate 0.1250 kg/ha", "result": 6.0},
      {"measurement": "herbicidal rating, MOOVA", "setting": "[16]; rate 0.0320 kg/ha", "result": 7.0},
      {"measurement": "herbicidal rating, MOOVA", "setting": "[16]; rate 0.1250 kg/ha", "result": 9.0},
      {"measurement": "herbicidal rating, ORYSAT (rice tolerance)", "setting": "ORYSAT (Rice, Tebonnet) [17]; rate 0.0320 kg/ha", "result": 5.0},
      {"measurement": "herbicidal rating, ORYSAT (rice tolerance)", "setting": "ORYSAT (Rice, Tebonnet) [17]; rate 0.1250 kg/ha", "result": 7.0}
    ]}
  ]
}
